Assay [1] deals with T1, ligand-binding domain of RORγ (RORγ-LBD) (Homo sapiens, UniProt P51449).
T1 construct: purchased Invitrogen
T1 sequence (P51449 269-508 limits assumed): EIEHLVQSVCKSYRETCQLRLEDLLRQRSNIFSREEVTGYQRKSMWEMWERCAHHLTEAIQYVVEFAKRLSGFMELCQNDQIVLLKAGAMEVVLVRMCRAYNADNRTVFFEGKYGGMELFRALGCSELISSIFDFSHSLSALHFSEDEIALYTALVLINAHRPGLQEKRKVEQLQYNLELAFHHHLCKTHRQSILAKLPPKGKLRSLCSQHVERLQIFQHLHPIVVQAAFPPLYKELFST
The assay is described as follows: Inhibitory effect on RORγ-coactivator binding (LanthaScreen TR-FRET RORγ Coactivator Assay). Conditions: at 33 μmol/L of the test compound; read-out: RORγ-coactivator binding inhibition rate (%). The procedure: The inhibitory effect of the cyclic amine derivative (I) or a pharmacologically acceptable salt thereof on the binding between a ligand-binding domain of RORγ (hereinafter referred to as RORγ-LBD) and a coactivator was evaluated using Invitrogen's LanthaScreen™TR-FRET Retinoid-Related Orphan Receptor (ROR) gamma Coactivator Assay kit utilizing time-resolved fluorescence energy transfer (TR-FRET).
The test compound was dissolved in DMSO and diluted with TR-FRET Coregulator Buffer D (Invitrogen) containing 5 mmol/L of DTT to have a final DMSO concentration of 1% before use. To each well of a 384-well black plate (Corning Inc.), 4 nmol/L of GST-fused RORγ-LBD (Invitrogen) diluted with the buffer mentioned above and the test compound were added. A well without addition of the test compound and without addition of GST-fused RORγ-LBD (background) and a well without addition of the test compound and with addition of GST-fused RORγ-LBD (control) were prepared. Next, 150 nmol/L of fluorescein-labeled TRAP220/DRIP-2 (Invitrogen) diluted with the buffer mentioned above and 32 nmol/L of terbium-labeled anti-GST antibody (Invitrogen) were added to each well. After incubating the plate at room temperature for 16 to 24 hours, the fluorescence at 495 nm and 520 nm when excited at 320 nm was measured for each well and the ratio (fluorescence value at 520 nm/fluorescence value at 495 nm) was calculated.
The fold change with addition of the test compound (ratio with addition of the test compound/ratio of the background), the fold change of the control (ratio of the control/ratio of the background), and the fold change of the background (ratio of the background/ratio of the background) were calculated, and then the inhibition rate of binding between RORγ-LBD and a coactivator (hereinafter referred to as RORγ-coactivator binding inhibition rate) (%) was calculated from Formula 1: RORγ-coactivator binding inhibition rate(%)=(1−((Fold change with addition of the test compound)−(Fold change of the background))/((Fold change of the control)−(Fold change of the background)))×100 Formula 1

The test system of assay [2] is IL-17 production in mouse splenocytes. Description: Suppressive effect on IL-17 production by IL-23 stimulation in mouse splenocytes. The format is cell-based. As to conditions: Splenocyte, 72 h, at 5 μmol/L of the test compound, 10 ng/mL human IL-23, 3 days, read-out: IL-17 production inhibition rate (%). On the procedure: Using mouse splenocytes, the suppressive effect of the cyclic amine derivative (I) or a pharmacologically acceptable salt thereof on IL-17 production by IL-23 stimulation was evaluated by a partially modified method mentioned in The Journal of Biological Chemistry, 2003, Vol. 278, No. 3, p. 1910-1914.
A single cell suspension was prepared from the spleen of C57BL/6J mice (male, 7 to 23 weeks old) (Charles River Laboratories Japan, Inc.) and splenocytes were prepared using Histopaque-1083 (Sigma-Aldrich Japan). The culture medium was used by adding 10% FBS (Gibco), 50 U/mL of penicillin 50 μg/mL of streptomycin (Gibco), 50 μmol/L of 2-mercaptoethanol (Gibco), and 100 U/mL of human IL-2 (Cell Science & Technology Institute, Inc.) to RPMI1640 medium (Gibco). The test compound was dissolved in DMSO and then diluted with the culture medium to have a final concentration of DMSO of 0.1% before use. Splenocytes (3×10^5 cells/well) prepared in the culture medium were seeded in wells of a 96-well flat-bottom plate (Corning Incorporated), the test compound and 10 ng/mL of human IL-23 (R & D systems, Inc.) were added thereto, and the cells were cultured at 37° C. under 5% CO2 for 3 days. A well without addition of human IL-23 and without addition of the test compound and a well with addition of human IL-23 and without addition of the test compound were prepared. After completion of the culture, the culture supernatant was collected and the IL-17 production amount in the supernatant was determined by ELISA method (R & D systems, Inc.).
The IL-17 production inhibition rate (%) was calculated from Formula 2. IL-17 production inhibition rate(%)=(1−((IL-17 production amount with addition of IL-23 and with addition of the test compound)−(IL-17 production amount without addition of IL-23 and without addition of the test compound))/((IL-17 production amount with addition of IL-23 and without addition of the test compound)−(IL-17 production amount without addition of IL-23 and without addition of the test compound)))×100 Formula 2

The source of these data is patent US10364222B2, “Cyclic amine derivative and medical use thereof” (Toray Industries, Inc., priority 2016, dated 2019).

Structures are written as SMILES.

The inhibition is the relative decrease from the control value, in per cent. For `CC(=O)N1CCCCC1C(=O)Nc1ccc(-c2ccccc2OC(F)(F)F)c(Cl)c1` (stereo not drawn) [Example 1, 1-acetyl-N-(2-chloro-2′-(trifluoromethoxy)-[1,1′-biphenyl]-4-yl)piperidine-2-carboxamide], the inhibition at 33 µM in assay [1] was found to be 90.9%. Moreover, in assay [2], the inhibition at 5 µM amounted to 94%.

In the case of `O=C(Nc1ccc(-c2ccccc2OC(F)(F)F)c(Cl)c1)C1CCCCN1C(=O)C(F)(F)F` (stereo not drawn) [Example 2, N-(2-chloro-2′-(trifluoromethoxy)-[1,1′-biphenyl]-4-yl)-1-(2,2,2-trifluoroacetyl)piperidine-2-carboxamide], the inhibition at 33 µM in assay [1] stood at 91.9%. Besides, the inhibition at 5 µM in assay [2] came out at 96.2%.

As for `CCC(=O)N1CCCCC1C(=O)Nc1ccc(-c2ccccc2OC(F)(F)F)c(Cl)c1` (stereo not drawn) [Example 3, N-(2-chloro-2′-(trifluoromethoxy)-[1,1′-biphenyl]-4-yl)-1-propionylpiperidine-2-carboxamide], in assay [1], the inhibition at 33 µM is 88.2%. For the same compound, the inhibition at 5 µM in assay [2] was found to be 98.6%.

In the case of `COCC(=O)N1CCCCC1C(=O)Nc1ccc(-c2ccccc2OC(F)(F)F)c(Cl)c1` (stereo not drawn) [Example 4, N-(2-chloro-2′-(trifluoromethoxy)-[1,1′-biphenyl]-4-yl)-1-(2-methoxyacetyl)piperidine-2-carboxamide], in assay [1], the inhibition at 33 µM was 90.3%. Besides, the inhibition at 5 µM in assay [2] is 99.7%.

Consider `O=C(Nc1ccc(-c2ccccc2OC(F)(F)F)c(Cl)c1)C1CCCCN1C(=O)CO` (stereo not drawn) [Example 5, N-(2-chloro-2′-(trifluoromethoxy)-[1,1′-biphenyl]-4-yl)-1-(2-hydroxyacetyl)piperidine-2-carboxamide], for which, in assay [1], the inhibition at 33 µM amounted to 96.9%. Besides, the inhibition at 5 µM in assay [2] was 99.5%.

Regarding `O=C(Nc1ccc(-c2ccccc2OC(F)(F)F)c(Cl)c1)C1CCCCN1C(=O)COC(F)(F)F` (stereo not drawn) [Example 8, N-(2-chloro-2′-(trifluoromethoxy)-[1,1′-biphenyl]-4-yl)-1-(2-(trifluoromethoxy)acetyl)piperidine-2-carboxamide], the inhibition at 33 µM in assay [1] amounted to 95.2%. Also, the inhibition at 5 µM in assay [2] worked out at 99.2%.

For the compound `CS(=O)(=O)NCC(=O)N1CCCCC1C(=O)Nc1ccc(-c2ccccc2OC(F)(F)F)c(Cl)c1` (stereo not drawn) [Example 10, N-(2-chloro-2′-(trifluoromethoxy)-[1,1′-biphenyl]-4-yl)-1-(2-(methylsulfonamide)acetyl)piperidine-2-carboxamide], in assay [1], the inhibition at 33 µM was 100%. Further, the inhibition at 5 µM in assay [2] is 98.6%.

On to `CN(CC(=O)N1CCCCC1C(=O)Nc1ccc(-c2ccccc2OC(F)(F)F)c(Cl)c1)S(C)(=O)=O` (stereo not drawn) [Example 13, N-(2-chloro-2′-(trifluoromethoxy)-[1,1′-biphenyl]-4-yl)-1-(2-(N-methylmethylsulfonamide)acetyl)piperidine-2-carboxamide], for which, in assay [1], the inhibition at 33 µM amounted to 101%. For the same compound, the inhibition at 5 µM in assay [2] stood at 98.2%.

Turning to `CCS(=O)(=O)N1CCCCC1C(=O)Nc1ccc(-c2ccccc2OC(F)(F)F)c(Cl)c1` (stereo not drawn) [Example 14, N-(2-chloro-2′-(trifluoromethoxy)-[1,1′-biphenyl]-4-yl)-1-(ethylsulfonyl)piperidine-2-carboxamide], the inhibition at 33 µM in assay [1] was determined as 94%. Moreover, the inhibition at 5 µM in assay [2] is 90.5%.

With `CS(=O)(=O)N1CCCCC1C(=O)Nc1ccc(-c2ccccc2OC(F)(F)F)c(Cl)c1` (stereo not drawn) [Example 15, N-(2-chloro-2′-(trifluoromethoxy)-[1,1′-biphenyl]-4-yl)-1-(methylsulfonyl)piperidine-2-carboxamide], the inhibition at 33 µM in assay [1] was found to be 100%. Besides, the inhibition at 5 µM in assay [2] came out at 99.4%.

Consider `O=CN1CCCCC1C(=O)Nc1ccc(-c2ccccc2OC(F)(F)F)c(Cl)c1` (stereo not drawn) [Example 16, N-(2-chloro-2′-(trifluoromethoxy)-[1,1′-biphenyl]-4-yl)-1-formylpiperidine-2-carboxamide], for which the inhibition at 33 µM in assay [1] turned out to be 99.3%. In addition, in assay [2], the inhibition at 5 µM was 98%.

`NC(=O)N1CCCCC1C(=O)Nc1ccc(-c2ccccc2OC(F)(F)F)c(Cl)c1` (stereo not drawn) [Example 17, N^2-(2-chloro-2′-(trifluoromethoxy)-[1,1′-biphenyl]-4-yl)piperidine-1,2-dicarboxamide]: the inhibition at 33 µM in assay [1] was 93.8%. The inhibition at 5 µM in assay [2] worked out at 91.8%.
